This note sets out measurements from patent US11040954B1, “CXCR3 receptor agonists” (RECEPTOS LLC, priority 2016, dated 2021).

pEC50: −log10 of the molar value.

The target in the test is T1, CXCR3 (Homo sapiens, UniProt P49682).
T1 construct: host or cells: CHO-K1 (cAMP Hunter CHOK1 CXCR3 Gi cell line)
T1 sequence (P49682 1-368): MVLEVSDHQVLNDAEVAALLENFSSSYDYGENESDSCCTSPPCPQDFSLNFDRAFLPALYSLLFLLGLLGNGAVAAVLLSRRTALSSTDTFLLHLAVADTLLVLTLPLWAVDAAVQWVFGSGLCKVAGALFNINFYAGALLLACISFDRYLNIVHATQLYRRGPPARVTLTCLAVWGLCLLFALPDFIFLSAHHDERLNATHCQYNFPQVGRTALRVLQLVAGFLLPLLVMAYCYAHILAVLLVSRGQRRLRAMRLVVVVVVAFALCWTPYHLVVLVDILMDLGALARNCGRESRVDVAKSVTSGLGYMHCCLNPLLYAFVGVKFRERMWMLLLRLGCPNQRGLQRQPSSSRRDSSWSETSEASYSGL
As to the kind of experiment: CXCR3 cAMP agonist assay (cAMP Hunter CHOK1 CXCR3 Gi cell line, forskolin-stimulated, HitHunter cAMP detection). Type of test: cell-based. The note with it: cAMP Hunter CHOK1 CXCR3 Gi cells, 20 μM forskolin, 30 minutes; read-out: Activity (CXCR3 cAMP agonist assay compound EC50). In outline: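 CHOK1 cells expressing human CXCR3 with Gi coupling, 50,000/well in suspension in HBSS/10 mM HEPES/0.1% BSA pH 7.4, were co-treated with 20 μM forskolin and compound (12-point, 0-10 μM, 1% DMSO) for 30 min. cAMP was read by enzyme-complementation luminescence; CXCL11 dose response set maximum efficacy.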
Consider `CS(=O)(=O)C1CCN(C(=O)CCC(=O)N2Cc3ccccc3C[C@H]2C(=O)N[C@@H](CCN)C(=O)Nc2ccc(Cl)c(Cl)c2F)CC1` [Compound 15-13], for which the pEC50 (as a rule, the EC50 on a negative log10 scale, so that one unit is a factor of ten) is less than 6.30. Then `CC(C)(C)CC1CCCCN1C(=O)CCC(=O)N1Cc2ccccc2C[C@H]1C(=O)N[C@@H](CCN)C(=O)Nc1ccc(Cl)c(Cl)c1F` (stereo partly shown) [Compound 15-14], with 6.60 to 7.30; and `NCC[C@H](NC(=O)[C@@H]1Cc2ccccc2CN1C(=O)CCC(=O)N1CCCCCC1)C(=O)Nc1ccc(Cl)c(Cl)c1F` [Compound 15-15], with greater than 7.30. Then `COCC1CCCCN1C(=O)CCC(=O)N1Cc2ccccc2C[C@H]1C(=O)N[C@@H](CCN)C(=O)Nc1ccc(Cl)c(Cl)c1F` (stereo partly shown) [Compound 15-16], with greater than 7.30. In the case of `CN(C)CC1CCCCN1C(=O)CCC(=O)N1Cc2ccccc2C[C@H]1C(=O)N[C@@H](CCN)C(=O)Nc1ccc(Cl)c(Cl)c1F` (stereo partly shown) [Compound 15-17] it was less than 6.30; in that of `NCC[C@H](NC(=O)[C@@H]1Cc2ccccc2CN1C(=O)CCC(=O)N1CCCC[C@@H]1CO)C(=O)Nc1ccc(Cl)c(Cl)c1F` [Compound 15-18], greater than 7.30. With `NCC[C@H](NC(=O)[C@@H]1Cc2ccccc2CN1C(=O)CCC(=O)N1CCCC[C@H]1CO)C(=O)Nc1ccc(Cl)c(Cl)c1F` [Compound 15-19], the pEC50 is 6.60 to 7.30. Consider `CC(C)CC1CCCCN1C(=O)CCC(=O)N1Cc2ccccc2C[C@H]1C(=O)N[C@@H](CCN)C(=O)Nc1ccc(Cl)c(Cl)c1F` (stereo partly shown) [Compound 15-20], for which the pEC50 is greater than 7.30.

For `CC(C)C1CCCCN1C(=O)CCC(=O)N1Cc2ccccc2C[C@H]1C(=O)N[C@@H](CCN)C(=O)Nc1ccc(Cl)c(Cl)c1F` (stereo partly shown) [Compound 15-21], the pEC50 was 6.60 to 7.30. In the case of `NCC[C@H](NC(=O)[C@@H]1Cc2ccccc2CN1C(=O)CCC(=O)N1CCCCC1C1CCC1)C(=O)Nc1ccc(Cl)c(Cl)c1F` (stereo partly shown) [Compound 15-22] it was greater than 7.30. Then `CCC(CC)C1CCCCN1C(=O)CCC(=O)N1Cc2ccccc2C[C@H]1C(=O)N[C@@H](CCN)C(=O)Nc1ccc(Cl)c(Cl)c1F` (stereo partly shown) [Compound 15-23], with 6.60 to 7.30; and `NCC[C@H](NC(=O)[C@@H]1Cc2ccccc2CN1C(=O)CCC(=O)N1CCC2(CC1)CC(F)(F)C2)C(=O)Nc1ccc(Cl)c(Cl)c1F` [Compound 15-24], with 6.30 to 6.60; and `NCC[C@H](NC(=O)[C@@H]1Cc2ccccc2CN1C(=O)CCC(=O)N1CCCC(CF)C1)C(=O)Nc1ccc(Cl)c(Cl)c1F` (stereo partly shown) [Compound 15-25], with greater than 7.30. Then `CO[C@H]1CCCN(C(=O)CCC(=O)N2Cc3ccccc3C[C@H]2C(=O)N[C@@H](CCN)C(=O)Nc2ccc(Cl)c(Cl)c2F)C1` [Compound 15-26], with greater than 7.30; and `CO[C@@H]1CCCN(C(=O)CCC(=O)N2Cc3ccccc3C[C@H]2C(=O)N[C@@H](CCN)C(=O)Nc2ccc(Cl)c(Cl)c2F)C1` [Compound 15-27], with greater than 7.30; and `CN(C)CCN(C)C(=O)CCC(=O)N1Cc2ccccc2C[C@H]1C(=O)N[C@@H](CCN)C(=O)Nc1ccc(Cl)c(Cl)c1F` [Compound 15-28], with less than 6.30. Consider `CC1CN(C(=O)CCC(=O)N2Cc3ccccc3C[C@H]2C(=O)N[C@@H](CCN)C(=O)Nc2ccc(Cl)c(Cl)c2F)CC1C` (stereo partly shown) [Compound 15-29], for which the pEC50 was greater than 7.30.

Consider `CN(C)[C@H]1CCN(C(=O)CCC(=O)N2Cc3ccccc3C[C@H]2C(=O)N[C@@H](CCN)C(=O)Nc2ccc(Cl)c(Cl)c2F)C1` [Compound 15-30], for which the pEC50 was 6.60 to 7.30. Then `CN(C)[C@@H]1CCN(C(=O)CCC(=O)N2Cc3ccccc3C[C@H]2C(=O)N[C@@H](CCN)C(=O)Nc2ccc(Cl)c(Cl)c2F)C1` [Compound 15-31], with greater than 7.30.

Regarding `CC(C)(C)C1CCCCN1C(=O)CCC(=O)N1Cc2ccccc2C[C@H]1C(=O)N[C@@H](CCN)C(=O)Nc1ccc(Cl)c(Cl)c1F` (stereo partly shown) [Compound 15-32], the pEC50 was 6.30 to 6.60. Then `NCC[C@H](NC(=O)[C@@H]1Cc2ccccc2CN1C(=O)CCC(=O)N1CCC2(CCC2)C1)C(=O)Nc1ccc(Cl)c(Cl)c1F` [Compound 15-33], with greater than 7.30; and `CC(C)(C)C1CCN(C(=O)CCC(=O)N2Cc3ccccc3C[C@H]2C(=O)N[C@@H](CCN)C(=O)Nc2ccc(Cl)c(Cl)c2F)C1` (stereo partly shown) [Compound 15-34], with greater than 7.30. Take `CCN(C(=O)CCC(=O)N1Cc2ccccc2C[C@H]1C(=O)N[C@@H](CCN)C(=O)Nc1ccc(Cl)c(Cl)c1F)C(C)(C)C` [Compound 15-35]: the pEC50 was greater than 7.30. Then `CN(C(=O)CCC(=O)N1Cc2ccccc2C[C@H]1C(=O)N[C@@H](CCN)C(=O)Nc1ccc(Cl)c(Cl)c1F)C1CCCC1` [Compound 15-36], with greater than 7.30; and `CN(C(=O)CCC(=O)N1Cc2ccccc2C[C@H]1C(=O)N[C@@H](CCN)C(=O)Nc1ccc(Cl)c(Cl)c1F)C1CCC1` [Compound 15-37], with 6.60 to 7.30. Then `NCC[C@H](NC(=O)[C@@H]1Cc2ccccc2CN1C(=O)CCC(=O)N1CCC2CCCCC21)C(=O)Nc1ccc(Cl)c(Cl)c1F` (stereo partly shown) [Compound 15-38], with greater than 7.30; and `CC(C)N(C(=O)CCC(=O)N1Cc2ccccc2C[C@H]1C(=O)N[C@@H](CCN)C(=O)Nc1ccc(Cl)c(Cl)c1F)C(C)C` [Compound 15-39], with 6.30 to 6.60. In the case of `CCN(CC(C)(C)C)C(=O)CCC(=O)N1Cc2ccccc2C[C@H]1C(=O)N[C@@H](CCN)C(=O)Nc1ccc(Cl)c(Cl)c1F` [Compound 15-40] it was 6.60 to 7.30; in that of `CN(C(=O)CCC(=O)N1Cc2ccccc2C[C@H]1C(=O)N[C@@H](CCN)C(=O)Nc1ccc(Cl)c(Cl)c1F)C1CC1` [Compound 15-41], less than 6.30; in that of `CCN(CC)C(=O)CCC(=O)N1Cc2ccccc2C[C@H]1C(=O)N[C@@H](CCN)C(=O)Nc1ccc(Cl)c(Cl)c1F` [Compound 15-42], 6.30 to 6.60. Take `CN(CC(C)(C)C)C(=O)CCC(=O)N1Cc2ccccc2C[C@H]1C(=O)N[C@@H](CCN)C(=O)Nc1ccc(Cl)c(Cl)c1F` [Compound 15-43]: the pEC50 is greater than 7.30.

For the compound `CN(CCC(C)(C)C)C(=O)CCC(=O)N1Cc2ccccc2C[C@H]1C(=O)N[C@@H](CCN)C(=O)Nc1ccc(Cl)c(Cl)c1F` [Compound 15-44], the pEC50 was greater than 7.30. Then `CN1CN(C(=O)CCC(=O)N2Cc3ccccc3C[C@H]2C(=O)N[C@@H](CCN)C(=O)Nc2ccc(Cl)c(Cl)c2F)CC1=O` [Compound 15-45], with 6.30 to 6.60. In the case of `NCC[C@H](NC(=O)[C@@H]1Cc2ccccc2CN1C(=O)CCC(=O)N1CCC2(CC2)C1)C(=O)Nc1ccc(Cl)c(Cl)c1F` [Compound 15-46] it was greater than 7.30; in that of `NCC[C@H](NC(=O)[C@@H]1Cc2ccccc2CN1C(=O)CCC(=O)N1CCC(C(F)(F)F)C1)C(=O)Nc1ccc(Cl)c(Cl)c1F` (stereo partly shown) [Compound 15-47], greater than 7.30. In the case of `NCC[C@H](NC(=O)[C@@H]1Cc2ccccc2CN1C(=O)CCC(=O)N1CCN2CCC[C@@H]2C1)C(=O)Nc1ccc(Cl)c(Cl)c1F` [Compound 15-49] it was greater than 7.30; in that of `Cc1c(Cl)ccc(NC(=O)[C@H](CCN)NC(=O)[C@@H]2Cc3ccccc3CN2C(=O)CCC(=O)N2CCCC(C)(C)C2)c1Cl` [Compound 15-50], greater than 7.30; in that of `Cc1c(Cl)ccc(NC(=O)[C@H](CCN)NC(=O)[C@@H]2Cc3ccccc3CN2C(=O)CCC(=O)N2CCCC3(CCC3)C2)c1Cl` [Compound 15-51], greater than 7.30.

In the case of `Cc1c(Cl)ccc(NC(=O)[C@H](CCN)NC(=O)[C@@H]2Cc3ccccc3CN2C(=O)CCC(=O)N2CCCCC2(C)C)c1Cl` [Compound 15-52], the pEC50 is greater than 7.30. On to `CN(C(=O)CCC(=O)N1Cc2ccccc2C[C@H]1C(=O)N[C@@H](CCN)C(=O)Nc1ccc(Cl)c(Cl)c1F)C(C)(C)C` [Compound 15-53], for which the pEC50 was 6.60 to 7.30. In the case of `NCC[C@H](NC(=O)[C@@H]1Cc2ccccc2CN1C(=O)CCC(=O)N1CC2CCCCC2C1)C(=O)Nc1ccc(Cl)c(Cl)c1F` (stereo partly shown) [Compound 15-54] it was greater than 7.30; in that of `CC(C)(O)C1CCCCN1C(=O)CCC(=O)N1Cc2ccccc2C[C@H]1C(=O)N[C@@H](CCN)C(=O)Nc1ccc(Cl)c(Cl)c1F` (stereo partly shown) [Compound 15-55], greater than 7.30.

For `NCC[C@H](NC(=O)[C@@H]1Cc2ccccc2CN1C(=O)CCC(=O)N1CCCCC1C(F)F)C(=O)Nc1ccc(Cl)c(Cl)c1F` (stereo partly shown) [Compound 15-56], the pEC50 is greater than 7.30.

Regarding `CC1(C)CCCN(C(=O)CCC(=O)N2Cc3cc(F)ccc3C[C@H]2C(=O)N[C@@H](CCN)C(=O)Nc2ccc(Cl)c(Cl)c2F)C1` [Compound 15-57], the negative-log EC50 (pEC50) was greater than 7.30.

Take `NCC[C@H](NC(=O)[C@@H]1Cc2ccc(F)cc2CN1C(=O)CCC(=O)N1CCCC2(CCC2)C1)C(=O)Nc1ccc(Cl)c(Cl)c1F` [Compound 15-58]: the pEC50 was greater than 7.30. In the case of `NCC[C@H](NC(=O)[C@@H]1Cc2ccc(F)cc2CN1C(=O)CCC(=O)N1CCCC12CCC2)C(=O)Nc1ccc(Cl)c(Cl)c1F` [Compound 15-59] it was greater than 7.30; in that of `CC1(C)CCN(C(=O)CCC(=O)N2Cc3cc(F)ccc3C[C@H]2C(=O)N[C@@H](CCN)C(=O)Nc2ccc(Cl)c(Cl)c2F)CC1` [Compound 15-60], greater than 7.30; in that of `CC1(C)CCCN1C(=O)CCC(=O)N1Cc2cc(F)ccc2C[C@H]1C(=O)N[C@@H](CCN)C(=O)Nc1ccc(Cl)c(Cl)c1F` [Compound 15-61], greater than 7.30.

For `C[C@H]1CN(C(=O)CCC(=O)N2Cc3ccccc3C[C@H]2C(=O)N[C@@H](CCN)C(=O)Nc2ccc(Cl)c(Cl)c2F)CCN1C` [Compound 15-63], the pEC50 was greater than 7.30.
